Measurements: patent publication US6683103B2, “Sulfonamides for treatment of endothelin-mediated disorders” (Texas Biotechnology Corporation, priority 1997, dated 2004)
Like-named read-outs stand apart in the source and are kept apart here.

Key:
human ETB receptor = target: T1, human ETB receptor (Homo sapiens, UniProt P24530); assay: Binding Test #2: inhibition of 125I-ET-1 binding to ETB receptors (transfected COS7 cell membranes)
T1 construct: expressed in transfected cells; host or cells: COS7 cells
T1 sequence (P24530 27-442): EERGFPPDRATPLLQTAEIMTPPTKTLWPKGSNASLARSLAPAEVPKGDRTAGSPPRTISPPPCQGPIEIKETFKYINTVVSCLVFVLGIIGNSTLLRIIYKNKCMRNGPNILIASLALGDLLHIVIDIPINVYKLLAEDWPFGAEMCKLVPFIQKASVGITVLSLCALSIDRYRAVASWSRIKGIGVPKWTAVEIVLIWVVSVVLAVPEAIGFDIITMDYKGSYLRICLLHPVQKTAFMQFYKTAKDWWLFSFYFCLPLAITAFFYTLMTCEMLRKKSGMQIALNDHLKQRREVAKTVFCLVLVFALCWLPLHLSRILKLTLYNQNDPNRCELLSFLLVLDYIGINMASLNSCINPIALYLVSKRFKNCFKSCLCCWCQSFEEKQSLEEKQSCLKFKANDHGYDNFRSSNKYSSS
Summary of the method: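 Competition with 125I-ET-1 for binding to membranes from COS7 cells transfected with human ETB receptor, used at 1 μg/50 μl binding buffer. Membranes prepared in HEPES pH 7.4 with aprotinin, including a DNase/MnCl2 step at 37 °C for 30 min.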

human ETA receptors = target: T2, human ETA receptors (Homo sapiens, UniProt P25101); assay: Binding Test #1: inhibition of 125I-ET-1 binding to ETA receptors (TE 671 cell membranes)
T2 construct: endogenous in cells; host or cells: TE 671 cells (ATCC HTB 139)
T2 sequence (P25101 21-427): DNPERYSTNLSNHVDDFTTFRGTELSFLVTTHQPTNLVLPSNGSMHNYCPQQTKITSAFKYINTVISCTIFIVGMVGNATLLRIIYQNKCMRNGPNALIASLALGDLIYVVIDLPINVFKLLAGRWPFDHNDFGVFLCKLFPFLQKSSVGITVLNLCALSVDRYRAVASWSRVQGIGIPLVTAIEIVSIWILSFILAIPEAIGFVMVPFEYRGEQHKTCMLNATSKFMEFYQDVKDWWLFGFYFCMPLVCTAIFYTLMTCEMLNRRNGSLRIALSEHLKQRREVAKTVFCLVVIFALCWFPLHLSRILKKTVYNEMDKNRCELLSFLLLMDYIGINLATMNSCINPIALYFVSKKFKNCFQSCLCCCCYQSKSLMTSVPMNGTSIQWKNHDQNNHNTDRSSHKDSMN
Summary of the method: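 Membranes from TE 671 cells (up to 8 μg protein) incubated with ¹²⁵I-ET-1 and compound (1 nM–100 μM final) in 30 mM HEPES pH 7.4, 150 mM NaCl, 5 mM MgCl2, 0.5% bacitracin, 16–18 h at 4 °C or alternatively at 24 °C. Nonspecific binding with 80 nM ET-1; bound pellet gamma-counted, % inhibition calculated, usually triplicate.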

[1] = Table 1, † incubation at 24° C., read-out: ETB
[2] = Table 1, † incubation at 24° C., read-out: ETA
[3] = Table 2, incubation at 4° C., read-out: ETB
[4] = Table 2, incubation at 4° C., read-out: ETA
[5] = Table 1, incubation at 4° C., read-out: ETB
[6] = Table 1, incubation at 4° C., read-out: ETA

Row | Structure (SMILES) | IC50 (human ETB receptor; [1]) [µM] | IC50 (human ETA receptors; [2]) [nM] | IC50 (human ETB receptor; [5]) [µM] | IC50 (human ETA receptors; [6]) [nM] | further results
1 | Cc1noc(NS(=O)(=O)c2ccsc2C/C=C/c2ccc3c(c2)OCO3)c1Br [N-(4-bromo-3-methyl-5-isoxazolyl)-2-[trans-(3,4-methylenedioxy)cinnamyl]thiophene-3-sulfonamide] | 1.4 | 140 | – | – | –
2 | Cc1noc(NS(=O)(=O)c2ccccc2-c2ccccc2)c1Br [N-(4-bromo-3-methyl-5-isoxazolyl)-2-biphenylsulfonamide] | – | – | – | – | IC50 (human ETB receptor; [3]): 8.54 µM; IC50 (human ETA receptors; [4]): 1.27 nM; IC50 (human ETA receptors; read-out: IC50 for ETA receptors): ~1.6 nM
3 | CCCCc1sc2ccccc2c1S(=O)(=O)Nc1onc(C)c1Br [N-(4-bromo-3-methyl-5-isoxazolyl)-2-butylbenzo[b]thiophene-3-sulfonamide] | – | – | ~3 | 22.6 | –
4 | Cc1noc(NS(=O)(=O)c2c(C(=O)O)n(C)c3ccccc23)c1Br [N-(4-bromo-3-methyl-5-isoxazolyl)-2-carboxyl-1-methylidole-3-sulfonamide] | 104 | 590 | – | – | –
5 | CCc1sc2ccc(C)cc2c1S(=O)(=O)Nc1onc(C)c1Br [N-(4-bromo-3-methyl-5-isoxazolyl)-2-ethyl-5-methylbenzo[b]thiophene-3-sulfonamide] | 54.3 ± 2.6 | 1890 ± 431 | – | – | –
6 | CCc1sc2ccccc2c1S(=O)(=O)Nc1onc(C)c1Br [N-(4-bromo-3-methyl-5-isoxazolyl)-2-ethylbenzo[b]thiophene-3-sulfonamide] | – | – | 5.13 | 6.7 | –
7 | Cc1noc(NS(=O)(=O)c2c(C(C)C)sc3ccccc23)c1Br [N-(4-bromo-3-methyl-5-isoxazolyl)-2-i-propylbenzo[b]thiophene-3-sulfonamide] | 10.7 | 30 | 5.7 | 5 | –
8 | Cc1noc(NS(=O)(=O)c2c(C)sc3ccccc23)c1Br [N-(4-bromo-3-methyl-5-isoxazolyl)-2-methylbenzo[b]thiophene-3-sulfonamide] | – | – | 3.5 | 48.6 | –
9 | Cc1noc(NS(=O)(=O)c2c(Cc3ccccc3)sc3ccccc23)c1Br [N-(4-bromo-3-methyl-5-isoxazolyl)-2-n-benzylbenzo[b]thiophene-3-sulfonamide] | – | – | ~1 | 18.2 | –
10 | CCCc1sc2ccccc2c1S(=O)(=O)Nc1onc(C)c1Br [N-(4-bromo-3-methyl-5-isoxazolyl)-2-n-propylbenzo[b]thiophene-3-sulfonamide] | 16.6 | 74 | 7.95 | 24 | –
11 | Cc1noc(NS(=O)(=O)c2ccsc2COc2ccc3c(c2)OCO3)c1Br [N-(4-bromo-3-methyl-5-isoxazolyl)-2-{[3,4-(methylenedioxy)phenoxy]methyl}thiophene-3-sulfonamide] | 6.61 | 302 | – | – | –
12 | Cc1ccc(/C=C/c2cc(-c3ccc(C)cc3)sc2S(=O)(=O)Nc2onc(C)c2Br)cc1 [N-(4-bromo-3-methyl-5-isoxazolyl)-3-(4-methyl-trans-styryl)-5-(4-tolyl)thiophene-2-sulfonamide] | 1.58 | 6900 | – | – | –
13 | Cc1ccc(Cc2cc(-c3ccc(C)cc3)sc2S(=O)(=O)Nc2onc(C)c2Br)cc1 [N-(4-bromo-3-methyl-5-isoxazolyl)-3-(4-methylbenzyl)-5-(4-tolyl)thiophene-2-sulfonamide] | 1.56 | 4690 | – | – | –
14 | Cc1ccc(CCc2cc(-c3ccc(C)cc3)sc2S(=O)(=O)Nc2onc(C)c2Br)cc1 [N-(4-bromo-3-methyl-5-isoxazolyl)-3-(4-methylphenethyl)-5-(4-tolyl)thiophene-2-sulfonamide] | 2.09 | 6100 | – | – | –
15 | Cc1noc(NS(=O)(=O)c2sccc2CCc2ccccc2)c1Br [N-(4-bromo-3-methyl-5-isoxazolyl)-3-(phenethyl)thiophene-2-sulfonamide] | 37.2 | 676 | 10.8 | 160 | –
16 | Cc1noc(NS(=O)(=O)c2sccc2Sc2ccccc2)c1Br [N-(4-bromo-3-methyl-5-isoxazolyl)-3-(phenylthio)thiophene-2-sulfonamide] | 3.68 | 80.1 | – | – | –
17 | Cc1noc(NS(=O)(=O)c2sccc2CC=Cc2cc3c(cc2CO)OCO3)c1Br [N-(4-bromo-3-methyl-5-isoxazolyl)-3-[2-(hydroxymethyl)-4,5-(methylenedioxy)cinnamyl]thiophene-2-sulfonamide] | 3.24 | 79.5 | – | – | –
18 | Cc1cc2c(cc1C=CCc1ccsc1S(=O)(=O)Nc1onc(C)c1Br)OCO2 [N-(4-bromo-3-methyl-5-isoxazolyl)-3-[2-methyl-4,5-(methylenedioxy)cinnamyl]thiophene-2-sulfonamide] | ~6 | ~100 | – | – | –
19 | Cc1cc2c(cc1CCc1ccsc1S(=O)(=O)Nc1onc(C)c1Br)OCO2 [N-(4-bromo-3-methyl-5-isoxazolyl)-3-[2-methyl-4,5-(methylenedioxy)phenethyl]thiophene-2-sulfonamide] | ~5 | ~100 | – | – | –
20 | Cc1noc(NS(=O)(=O)c2sccc2/C=C/c2ccc3c(c2)OCO3)c1Br [N-(4-bromo-3-methyl-5-isoxazolyl)-3-[3,4-(methylenedioxy)-trans-styryl]thiophene-2-sulfonamide] | 10 | 218 | – | – | –
21 | Cc1noc(NS(=O)(=O)c2sccc2CCc2ccc3c(c2)OCO3)c1Br [N-(4-bromo-3-methyl-5-isoxazolyl)-3-[3,4-(methylenedioxy)phenethyl]thiophene-2-sulfonamide] | 18 | 236 | – | – | –
22 | Cc1noc(NS(=O)(=O)c2sccc2-c2ccc3c(c2)OCO3)c1Br [N-(4-bromo-3-methyl-5-isoxazolyl)-3-[(3,4-methylenedioxy)phenyl]thiophene-2-sulfonamide] | 79 | 500 | – | – | –
23 | Cc1noc(NS(=O)(=O)c2cccc(-c3ccccc3)c2)c1Br [N-(4-bromo-3-methyl-5-isoxazolyl)-3-biphenylsulfonamide] | – | – | – | – | IC50 (human ETB receptor; [3]): 0.76 µM; IC50 (human ETB receptor; read-out: IC50 for ETB receptors): ~0.76 µM; IC50 (human ETA receptors; [4]): ~30 nM
24 | Cc1noc(NS(=O)(=O)c2ccc(-c3ccccc3)cc2)c1Br [N-(4-bromo-3-methyl-5-isoxazolyl)-4-biphenylsulfonamide] | – | – | – | – | IC50 (human ETB receptor; [3]): ~0.17 µM; IC50 (human ETB receptor; Table 2, † incubation at 24° C., read-out: ETB): 1.23 µM; IC50 (human ETA receptors; [4]): 3300 nM; IC50 (human ETA receptors; Table 2, † incubation at 24° C., read-out: ETA): 49000 nM

Continued, in another order:

Row | IC50 (human ETB receptor; [1]) [µM] | IC50 (human ETA receptors; [2]) [nM] | IC50 (human ETB receptor; [5]) [µM] | IC50 (human ETA receptors; [6]) [nM] | Structure (SMILES) | further results
25 | – | – | 7.15 | 651 | Cc1ccsc1S(=O)(=O)Nc1onc(C)c1Br [N-(4-bromo-3-methyl-5-isoxazolyl)-3-methylthiophene-2-sulfonamide] | –
26 | – | – | 3.46 | 103 | Cc1noc(NS(=O)(=O)c2sccc2Oc2ccccc2)c1Br [N-(4-bromo-3-methyl-5-isoxazolyl)-3-phenoxythiophene-2-sulfonamide] | –
27 | – | – | 11.1 | 54.7 | Cc1noc(NS(=O)(=O)c2sccc2-c2ccccc2)c1Br [N-(4-bromo-3-methyl-5-isoxazolyl)-3-phenylthiophene-2-sulfonamide] | –
28 | – | 96.7 | 4.14 | – | Cc1noc(NS(=O)(=O)c2sccc2CC=Cc2cc3c(cc2COC2CCCCO2)OCO3)c1Br (centres unmarked) [N-(4-bromo-3-methyl-5-isoxazolyl)-3-{2-[(tetrahydro-4H-pyran-2-ylxoy)methyl]-4,5-(methylenedioxy)cinnamyl}thiophene-2-sulfonamide] | –
29 | 1.5 | ~200 | – | – | CCCc1cc2c(cc1OCc1ccsc1S(=O)(=O)Nc1onc(C)c1Br)OCO2 [N-(4-bromo-3-methyl-5-isoxazolyl)-3-{[2-propyl-4,5-(methylenedioxy)phenoxy]methyl}thiophene-2-sulfonamide] | –
30 | 0.435 | 962 | – | – | CCCc1ccc(-c2csc(S(=O)(=O)Nc3onc(C)c3Br)c2)cc1 [N-(4-bromo-3-methyl-5-isoxazolyl)-4-(4-propylphenyl)thiophene-2-sulfonamide] | –
31 | – | – | 1.3 | 5500 | Cc1noc(NS(=O)(=O)c2cc(-c3ccc(C(C)C)cc3)cs2)c1Br [N-(4-bromo-3-methyl-5-isoxazolyl)-4-(4′-isopropylphenyl))thiophene-2-sulfonamide] | –
32 | – | – | 3.97 | 6640 | Cc1noc(NS(=O)(=O)c2cc(CCc3ccccc3)cs2)c1Br [N-(4-bromo-3-methyl-5-isoxazolyl)-4-(phenethyl)thiophene-2-sulfonamide] | –
